For the data set, the system named is CCRIS mutagenicity, Ames/micronucleus/aberration tests. The data set can be described thus: CCRIS mutagenicity studies.
Setting [1] is: Test System: AMES SALMONELLA TYPHIMURIUM, Strain/Indicator: TA100, Metabolic Activation: NONE, Method: STANDARD PLATE.

Calls of active or inactive are those of the source. How the calls were made is not given here.

Regarding `Clc1ccc(Cl)c(Cl)c1`, the mutagenic call is “inactive; negative” (Test System: AMES SALMONELLA TYPHIMURIUM, Strain/Indicator: TA98, Metabolic Activation: HAMSTER, LIVER, S-9, AROCLOR 1254, Method: PREINCUBATION); “inactive; negative” (Test System: AMES SALMONELLA TYPHIMURIUM, Strain/Indicator: TA98, Metabolic Activation: NONE, Method: PREINCUBATION); “inactive; negative” (Test System: AMES SALMONELLA TYPHIMURIUM, Strain/Indicator: TA98, Metabolic Activation: RAT, LIVER, S-9, AROCLOR 1254, Method: PREINCUBATION); “inactive; negative” (Test System: AMES SALMONELLA TYPHIMURIUM, Strain/Indicator: TA100, Metabolic Activation: HAMSTER, LIVER, S-9, AROCLOR 1254, Method: PREINCUBATION); “inactive; negative” (Test System: AMES SALMONELLA TYPHIMURIUM, Strain/Indicator: TA100, Metabolic Activation: NONE, Method: PREINCUBATION); “inactive; negative” (Test System: AMES SALMONELLA TYPHIMURIUM, Strain/Indicator: TA100, Metabolic Activation: RAT, LIVER, S-9, AROCLOR 1254, Method: PREINCUBATION). In addition, the mutagenic call reads like this: (Test System: AMES SALMONELLA TYPHIMURIUM, Strain/Indicator: TA1535, Metabolic Activation: HAMSTER, LIVER, S-9, AROCLOR 1254, Method: PREINCUBATION) “inactive; negative”; (Test System: AMES SALMONELLA TYPHIMURIUM, Strain/Indicator: TA1535, Metabolic Activation: NONE, Method: PREINCUBATION) “inactive; negative”; (Test System: AMES SALMONELLA TYPHIMURIUM, Strain/Indicator: TA1535, Metabolic Activation: RAT, LIVER, S-9, AROCLOR 1254, Method: PREINCUBATION) “inactive; negative”; (Test System: AMES SALMONELLA TYPHIMURIUM, Strain/Indicator: TA1537, Metabolic Activation: HAMSTER, LIVER, S-9, AROCLOR 1254, Method: PREINCUBATION) “inactive; negative”; (Test System: AMES SALMONELLA TYPHIMURIUM, Strain/Indicator: TA1537, Metabolic Activation: NONE, Method: PREINCUBATION) “inactive; negative”; (Test System: AMES SALMONELLA TYPHIMURIUM, Strain/Indicator: TA1537, Metabolic Activation: RAT, LIVER, S-9, AROCLOR 1254, Method: PREINCUBATION) “inactive; negative”.
`FC(F)(F)c1ccccc1CN1C2c3ccccc3-c3ccccc3C21` (configuration not stated): the mutagenic call under setting [1] was “active; positive”.
As to `CCC(C)Br` (configuration not stated), the mutagenic call is “active; positive” (Test System: AMES SALMONELLA TYPHIMURIUM, Strain/Indicator: TA100, Metabolic Activation: NONE, Method: DESICCATOR); “active; positive” (Test System: AMES SALMONELLA TYPHIMURIUM, Strain/Indicator: TA100, Metabolic Activation: RAT, LIVER, S-9, AROCLOR 1254, Method: DESICCATOR); “active; positive” (Test System: AMES SALMONELLA TYPHIMURIUM, Strain/Indicator: TA1535, Metabolic Activation: NONE, Method: DESICCATOR); “active; positive” (Test System: AMES SALMONELLA TYPHIMURIUM, Strain/Indicator: TA1535, Metabolic Activation: RAT, LIVER, S-9, AROCLOR 1254, Method: DESICCATOR).
`O[C@H]1[C@H](O)COC(NCCc2c[nH]c3ccccc23)[C@@H]1O` (some centres not stated): the mutagenic call (Test System: AMES SALMONELLA TYPHIMURIUM, Strain/Indicator: TA100, Metabolic Activation: NONE, Method: LIQUID INCUBATION) is “active; positive”.
Consider `C=CC1=C(C)C(/C=c2/[nH]/c(=C\c3[nH]c(/C=C4\NC(=O)C(C)=C4C=C)c(C)c3CCC(=O)O)c(CCC(=O)O)c2C)=NC1=O`, for which the mutagenic call is “inactive; negative” (Test System: Ames Salmonella typhimurium, Strain/Indicator: TA98, Metabolic Activation: Liver, S-9, Method: Preincubation); “inactive; negative” (Test System: Ames Salmonella typhimurium, Strain/Indicator: TA100, Metabolic Activation: Liver, S-9, Method: Preincubation); “inactive; negative” (Test System: Ames Salmonella typhimurium, Strain/Indicator: TA100, Metabolic Activation: None, Method: Preincubation); “inactive; negative” (Test System: Ames Salmonella typhimurium, Strain/Indicator: TA102, Metabolic Activation: Liver, S-9, Method: Preincubation); “inactive; negative” (Test System: Ames Salmonella typhimurium, Strain/Indicator: TA102, Metabolic Activation: None, Method: Preincubation).
In the case of `O=S(O)O`, the mutagenic call is, setting by setting: (Test System: AMES SALMONELLA TYPHIMURIUM, Strain/Indicator: GW19, Metabolic Activation: NONE, Method: PREINCUBATION (30-90 MIN)) “inactive; negative”; (Test System: AMES SALMONELLA TYPHIMURIUM, Strain/Indicator: GW19, Metabolic Activation: NONE, Method: STANDARD PLATE) “inactive; negative”; (Test System: AMES SALMONELLA TYPHIMURIUM, Strain/Indicator: HISG46, Metabolic Activation: NONE, Method: PREINCUBATION) “active; positive”; (Test System: AMES SALMONELLA TYPHIMURIUM, Strain/Indicator: HISG46, Metabolic Activation: NONE, Method: PREINCUBATION (30-120 MIN)) “active; positive”; (Test System: AMES SALMONELLA TYPHIMURIUM, Strain/Indicator: HISG46, Metabolic Activation: NONE, Method: STANDARD PLATE) “active; positive”; (Test System: AMES SALMONELLA TYPHIMURIUM, Strain/Indicator: TA92, Metabolic Activation: NONE, Method: PREINCUBATION (30-90 MIN)) “active; positive”. Further, the mutagenic call runs as follows: (Test System: AMES SALMONELLA TYPHIMURIUM, Strain/Indicator: TA92, Metabolic Activation: NONE, Method: STANDARD PLATE) “inactive; negative”; (Test System: AMES SALMONELLA TYPHIMURIUM, Strain/Indicator: TA97, Metabolic Activation: NONE, Method: PREINCUBATION) “inactive; negative”; (Test System: AMES SALMONELLA TYPHIMURIUM, Strain/Indicator: TA97, Metabolic Activation: RAT, LIVER, S-9, AROCLOR 1254, Method: PREINCUBATION) “inactive; negative”; (Test System: AMES SALMONELLA TYPHIMURIUM, Strain/Indicator: TA98, Metabolic Activation: NONE, Method: STANDARD PLATE) “inactive; negative”; (Test System: AMES SALMONELLA TYPHIMURIUM, Strain/Indicator: TA98, Metabolic Activation: RAT, LIVER, S-9, AROCLOR 1254, Method: STANDARD PLATE) “inactive; negative”; under setting [1], “inactive; negative”. The mutagenic call is, setting by setting: (Test System: AMES SALMONELLA TYPHIMURIUM, Strain/Indicator: TA100, Metabolic Activation: RAT, LIVER, S-9, AROCLOR 1254, Method: STANDARD PLATE) “inactive; negative”; (Test System: AMES SALMONELLA TYPHIMURIUM, Strain/Indicator: TA102, Metabolic Activation: NONE, Method: PREINCUBATION) “inactive; negative”; (Test System: AMES SALMONELLA TYPHIMURIUM, Strain/Indicator: TA102, Metabolic Activation: RAT, LIVER, S-9, AROCLOR 1254, Method: PREINCUBATION) “inactive; negative”; (Test System: AMES SALMONELLA TYPHIMURIUM, Strain/Indicator: TA1535, Metabolic Activation: NONE, Method: STANDARD PLATE) “inactive; negative”; (Test System: AMES SALMONELLA TYPHIMURIUM, Strain/Indicator: TA1535, Metabolic Activation: RAT, LIVER, S-9, AROCLOR 1254, Method: STANDARD PLATE) “inactive; negative”; (Test System: AMES SALMONELLA TYPHIMURIUM, Strain/Indicator: TA1537, Metabolic Activation: NONE, Method: STANDARD PLATE) “inactive; negative”. Besides, the mutagenic call runs as follows: (Test System: AMES SALMONELLA TYPHIMURIUM, Strain/Indicator: TA1537, Metabolic Activation: RAT, LIVER, S-9, AROCLOR 1254, Method: STANDARD PLATE) “inactive; negative”; (Test System: AMES SALMONELLA TYPHIMURIUM, Strain/Indicator: TA1538, Metabolic Activation: NONE, Method: STANDARD PLATE) “inactive; negative”; (Test System: AMES SALMONELLA TYPHIMURIUM, Strain/Indicator: TA1538, Metabolic Activation: RAT, LIVER, S-9, AROCLOR 1254, Method: STANDARD PLATE) “inactive; negative”; (Test System: AMES SALMONELLA TYPHIMURIUM, Strain/Indicator: TA1950, Metabolic Activation: NONE, Method: PREINCUBATION (30-90 MIN)) “active; positive”; (Test System: AMES SALMONELLA TYPHIMURIUM, Strain/Indicator: TA1950, Metabolic Activation: NONE, Method: STANDARD PLATE) “active; positive”; (Test System: AMES SALMONELLA TYPHIMURIUM, Strain/Indicator: TA2410, Metabolic Activation: NONE, Method: PREINCUBATION (30-90 MIN)) “active; positive”. For the same compound, the mutagenic call by setting is: (Test System: AMES SALMONELLA TYPHIMURIUM, Strain/Indicator: TA2410, Metabolic Activation: NONE, Method: STANDARD PLATE) “inactive; negative”; (Test System: AMES SALMONELLA TYPHIMURIUM, Strain/Indicator: TS24, Metabolic Activation: NONE, Method: PREINCUBATION (30-90 MIN)) “active; positive”; (Test System: AMES SALMONELLA TYPHIMURIUM, Strain/Indicator: TS24, Metabolic Activation: NONE, Method: STANDARD PLATE) “active; positive”; (Test System: E. COLI, Strain/Indicator: WP2, Metabolic Activation: NONE, Method: STANDARD PLATE) “inactive; negative”; (Test System: E. COLI, Strain/Indicator: WP2, Metabolic Activation: RAT, LIVER, S-9, AROCLOR 1254, Method: STANDARD PLATE) “inactive; negative”.
